Results: patent EP0431327B1, “Synthetic vaccine for the specific induction of cytotoxic T-lymphocytes” (HOECHST AKTIENGESELLSCHAFT, priority 1989, dated 1991)

System: Influenza-Virus A/PR/8
Experiment: Protection of immunised mice against intranasal influenza virus infection (survival, body weight)
Format: in vivo, BALB/c-Inzuchtmäuse
Description: Unter SPF-Bedingungen gezüchtete, 3 Monate alte BALB/c-Inzuchtmäuse wurden intravenös mit 100 µg Pam₃cys-Ser-Ser-[NP 147-158] immunisiert. (100 µg Pam₃Cys-Ser-Ser-[NP 147-158], aufgenommen in 300 µl PBS, 1 min beschallt). Nach 28 Tagen wurden die Mäuse mit 0,2 bzw. 0,4 haemagglutinierenden Einheiten Influenza-Virus A/PR/8 intranasal infiziert. Analog wurden zur Kontrolle Mäuse infiziert, denen 300 µl PBS intravenös appliziert wurde. Der Verlauf der Infektion wurde anhand von täglichen Gewichtskontrollen und der Überlebensrate kontrolliert. 11 von 12 Kontrolltieren, die mit 0,4 haemagglutinierenden Einheiten infiziert wurden, starben nach 11 Tagen an der Virusinfektion, während von den immunisierten Tieren nur 4 von 12 starben.
Eine weitere Kontrollgruppe und eine mit Pam₃Cys-Ser-Ser-[NP 147-158] immunisierte Gruppe wurden mit 0,2 haemagglutinierenden Einheiten Influenza-Virus infiziert. Nach 18 Tagen lebten noch 40 % der Kontrolltiere (4 von 10 Tieren), während 75 % der immunisierten Tiere lebten. Am Tag 18 betrug die Gewichtsdifferenz zwischen immunisierten Tieren und Kontrolltieren 4 g.

With “N-Palmitoyl-S-[2,3-(bispalmitoyloxy)-propyl]cysteinyl-seryl-seryl-NP 147-158 [Pam₃Cys-Ser-Ser-[NP 147-158]]” the “Verlauf der Infektion (Gewicht)” value (0,2 haemagglutinating units, after day 18, surviving controls kept losing weight) was “langsam von der Infektion erholten”, the “Gewichtsdifferenz zwischen immunisierten Tieren und Kontrolltieren” value (0,2 haemagglutinating units, day 18) was 4 g and the “immunisierte Tiere, die an der Virusinfektion starben” value (100 µg i.v. in 300 µl PBS, after 28 days infected intranasally with 0,4 haemagglutinating units, deaths after 11 days, PBS controls 11 von 12) was 4 von 12. The “lebende immunisierte Tiere” value (immunised group infected with 0,2 haemagglutinating units, after 18 days, controls 40 %) was 75%.
